Test results from the NIST ThermoML archive (doi:10.1021/je0499317).

Test: excess molar enthalpy (molar enthalpy of mixing); xn = mol fraction of the nth substance listed
Details: 298.15 K, 101.33 kPa, Liquid

CCCCCCC#N [heptanenitrile] + C[S+](C)[O-]
Details | excess molar enthalpy [kJ/mol]
x2 = 0.02225 | 0.0655
x2 = 0.07063 | 0.21
x2 = 0.08316 | 0.247
x2 = 0.119 | 0.341
x2 = 0.1747 | 0.484
x2 = 0.1851 | 0.516
x2 = 0.2248 | 0.595
x2 = 0.2423 | 0.64
x2 = 0.3049 | 0.75
x2 = 0.3581 | 0.834
x2 = 0.3605 | 0.843
x2 = 0.4935 | 0.963
x2 = 0.5772 | 0.975
x2 = 0.6522 | 0.947
x2 = 0.7056 | 0.896
x2 = 0.8946 | 0.477
x2 = 0.9545 | 0.23
x2 = 0.9792 | 0.112

CCCCCCCCCCCC#N [n-dodecanenitrile] + C[S+](C)[O-]
Details | excess molar enthalpy [kJ/mol]
x2 = 0.02506 | 0.0968
x2 = 0.02612 | 0.109
x2 = 0.07491 | 0.32
x2 = 0.09988 | 0.434
x2 = 0.1665 | 0.702
x2 = 0.1791 | 0.772
x2 = 0.1948 | 0.812
x2 = 0.2522 | 1.02
x2 = 0.3366 | 1.22
x2 = 0.4308 | 1.37
x2 = 0.562 | 1.43
x2 = 0.7592 | 1.25
x2 = 0.8602 | 0.966
x2 = 0.8956 | 0.806
x2 = 0.9461 | 0.478
x2 = 0.9649 | 0.335
x2 = 0.9886 | 0.12

CCCCCCCCCC#N [1-decanenitrile] + CSCS(C)=O
Details | excess molar enthalpy [kJ/mol]
x2 = 0.02311 | 0.0954
x2 = 0.02808 | 0.121
x2 = 0.05736 | 0.249
x2 = 0.07887 | 0.338
x2 = 0.1059 | 0.451
x2 = 0.1267 | 0.535
x2 = 0.1515 | 0.622
x2 = 0.186 | 0.736
x2 = 0.2278 | 0.851
x2 = 0.2893 | 0.971
x2 = 0.3382 | 1.05
x2 = 0.3657 | 1.08
x2 = 0.4935 | 1.14
x2 = 0.5572 | 1.13
x2 = 0.6575 | 1.05
x2 = 0.7014 | 0.999
x2 = 0.7482 | 0.919
x2 = 0.7873 | 0.839
x2 = 0.8609 | 0.659
x2 = 0.9468 | 0.305
x2 = 0.976 | 0.147
x2 = 0.988 | 0.0806

CCCCCCC#N [heptanenitrile] + CSCS(C)=O
Details | excess molar enthalpy [kJ/mol]
x2 = 0.02045 | 0.0818
x2 = 0.05221 | 0.201
x2 = 0.08567 | 0.319
x2 = 0.09776 | 0.357
x2 = 0.1935 | 0.599
x2 = 0.2208 | 0.655
x2 = 0.2701 | 0.742
x2 = 0.3893 | 0.87
x2 = 0.4914 | 0.902
x2 = 0.579 | 0.885
x2 = 0.7478 | 0.714
x2 = 0.8609 | 0.466
x2 = 0.936 | 0.247
x2 = 0.9576 | 0.165
x2 = 0.9714 | 0.115

CCCCCCCCCCCCCC#N [tetradecanenitrile] + CSCS(C)=O
Details | excess molar enthalpy [kJ/mol]
x2 = 0.03538 | 0.172
x2 = 0.05372 | 0.288
x2 = 0.08438 | 0.432
x2 = 0.1289 | 0.638
x2 = 0.1565 | 0.741
x2 = 0.1984 | 0.88
x2 = 0.3348 | 1.18
x2 = 0.505 | 1.27
x2 = 0.6332 | 1.22
x2 = 0.6721 | 1.19
x2 = 0.8155 | 0.956
x2 = 0.8867 | 0.719
x2 = 0.9123 | 0.605
x2 = 0.9566 | 0.365
x2 = 0.9858 | 0.147

CCCCCC#N [hexanenitrile] + CSCS(C)=O
Details | excess molar enthalpy [kJ/mol]
x2 = 0.01678 | 0.0542
x2 = 0.02979 | 0.104
x2 = 0.05841 | 0.197
x2 = 0.07605 | 0.247
x2 = 0.1435 | 0.433
x2 = 0.1944 | 0.545
x2 = 0.2184 | 0.591
x2 = 0.2608 | 0.66
x2 = 0.3826 | 0.787
x2 = 0.4382 | 0.807
x2 = 0.4785 | 0.811
x2 = 0.5751 | 0.783
x2 = 0.7307 | 0.628
x2 = 0.8373 | 0.449
x2 = 0.9177 | 0.255
x2 = 0.9392 | 0.196
x2 = 0.9784 | 0.0745

CCCCCCCCCCCCC#N [dodecanecarbonitrile] + CSCS(C)=O
Details | excess molar enthalpy [kJ/mol]
x2 = 0.06513 | 0.323
x2 = 0.0823 | 0.433
x2 = 0.1316 | 0.629
x2 = 0.2014 | 0.873
x2 = 0.265 | 1.04
x2 = 0.3508 | 1.18
x2 = 0.367 | 1.21
x2 = 0.4233 | 1.26
x2 = 0.5443 | 1.28
x2 = 0.6344 | 1.23
x2 = 0.7341 | 1.11
x2 = 0.7878 | 0.992
x2 = 0.8039 | 0.948
x2 = 0.9082 | 0.578
x2 = 0.9683 | 0.246
x2 = 0.9847 | 0.123

CCCCCCCC#N [octanenitrile] + C[S+](C)[O-]
Details | excess molar enthalpy [kJ/mol]
x2 = 0.02667 | 0.0814
x2 = 0.037 | 0.123
x2 = 0.1176 | 0.373
x2 = 0.18 | 0.559
x2 = 0.2399 | 0.708
x2 = 0.3293 | 0.889
x2 = 0.3877 | 0.976
x2 = 0.4654 | 1.05
x2 = 0.552 | 1.09
x2 = 0.6233 | 1.07
x2 = 0.7022 | 1.02
x2 = 0.8267 | 0.79
x2 = 0.8785 | 0.622
x2 = 0.9546 | 0.284
x2 = 0.9616 | 0.238
x2 = 0.992 | 0.0564

CCCCCCCCCC#N [1-decanenitrile] + C[S+](C)[O-]
Details | excess molar enthalpy [kJ/mol]
x2 = 0.03778 | 0.142
x2 = 0.04533 | 0.175
x2 = 0.07244 | 0.27
x2 = 0.08356 | 0.312
x2 = 0.1458 | 0.553
x2 = 0.1516 | 0.572
x2 = 0.1578 | 0.592
x2 = 0.2138 | 0.767
x2 = 0.232 | 0.816
x2 = 0.3492 | 1.07
x2 = 0.4404 | 1.19
x2 = 0.52 | 1.25
x2 = 0.5471 | 1.26
x2 = 0.5564 | 1.27
x2 = 0.6253 | 1.26
x2 = 0.7275 | 1.18
x2 = 0.7979 | 1.05
x2 = 0.9212 | 0.583
x2 = 0.962 | 0.32
x2 = 0.9868 | 0.123
